Where “and” joins values, the source holds several entries; their conditions need not be identical. Identical values can stand only once.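 48-hour exposure; five concentrations; linearly interpolated endpoints. GI50 marks 50% less growth. TGI is the concentration that stops growth completely.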 A value given as a limit tells only on which side of the number the result lay.

In PubChem BioAssay (NCI) one finds TGI and GI50 data, which are given here for 17 compounds.

The test system of one experiment is SK-OV-3 ovarian. The experiment can be described thus: inhibition of tumour cell growth, NCI panel, 48 h.
As to `CC(C)(C)OC(=O)NCC(C#N)CNC(=O)OC(C)(C)C`, the TGI was above 100 µM.

Consider `O=C(Nc1ccc(OC(F)(F)F)cc1)c1sccc1NCc1ccnc2ccccc12`, for which the GI50 is 2.42 µM and the TGI is above 100 µM.

`CCN(CC)c1ccc(NC(=S)NN(C)C)cc1` registered a TGI above 10 µM.

Consider `COc1ccc(-c2cc(-c3ccc(Cl)cc3)c(C#N)c(=O)n2CCCCC(=O)Nc2ccccc2N)cc1`, for which the GI50 is 11.3 µM and the TGI was 54.3 µM.

For the compound `CN1CCCN(CCNc2nccc(-c3c(-c4cccc(O)c4)nc4sccn34)n2)S1(=O)=O`, the GI50 was 3.44 µM and 3.21 µM; the TGI is 21.3 µM and 17 µM.

As to `CCOC(=O)c1c(NC(=O)c2ccc(C(C)C)cc2)sc2c(CN(C)C)c(O)ccc12`, the GI50 is 3 µM and the TGI turned out to be 9.22 µM.

Take `COc1ccc(C(=O)N2c3ccccc3Sc3ccccc32)c(F)c1`: the GI50 was 4.13 µM and the TGI is above 100 µM.

`CC(O)CNC1=CC(=O)C(=O)c2ccccc21` (stereo not given) showed a TGI above 100 µM.

`CC1(C)N=C(N)N=C(N)N1c1ccc(CCc2ccccc2)c(Cl)c1`: the GI50 was 1.04 µM and the TGI came to 18.4 µM.

The test system of the next experiment is SF-268 CNS. Nature of the experiment: inhibition of tumour cell growth, NCI panel, 48 h.
For the compound `COc1ccc(Cl)cc1Nc1nc(C(F)(F)F)ccc1C(=O)NN`, the GI50 is 1.38 µM and the TGI was above 100 µM.

Take `CC(C)c1ccc2nc3ccc(C(=O)NCCN(C)C)cn3c(=O)c2c1`: the TGI is 36.3 µM.

As for `C#C[C@]1(O)CC[C@H]2[C@@H]3CC=C4c5nc(Nc6ccccn6)sc5CC[C@]4(C)[C@H]3CC[C@@]21C`, the GI50 is 1.85 µM and the TGI is 6.87 µM.

For the compound `CSc1ccc(C2=Nn3c(nnc3-c3ccc(F)c(Cl)c3)SC2)cc1`, the GI50 is 75.7 µM and the TGI was above 100 µM.

For the compound `CNC(=O)Nc1ccc(-c2nc(N3CCOCC3)nc3c2cnn3C2CCOCC2)cc1`, the GI50 was 0.284 µM and the TGI is above 51.3 µM.

Compound `NCCCCNCCCNC(=O)CNC(=O)CC(O)C(N)CCCC(NC(=O)C(CN)NC(=O)C(O)CNC(=O)CC(N)c1ccc(O)cc1)C(=O)O` (stereo not given) gave a TGI above 10 µM.

As to `N/C(=N\OC(=O)c1ccccc1)C(C(=O)NOC(=O)c1ccccc1)C1CCCCC1` (stereo not given), the GI50 is 2.39 µM and the TGI is 6.7 µM.

`CCOc1ccc(N=Nc2ccc3cc(/C(C)=N/NC(=O)/C(C#N)=C\c4ccc(N(CCC#N)CCC#N)cc4)c(=O)oc3c2)cc1`: the TGI was above 10 µM.

In turn, `CC(C)(C)OC(=O)NCC(C#N)CNC(=O)OC(C)(C)C` showed a TGI above 100 µM.

Regarding `O=C(Nc1ccc(OC(F)(F)F)cc1)c1sccc1NCc1ccnc2ccccc12`, the GI50 was 5.26 µM and the TGI was above 100 µM.

`CCN(CC)c1ccc(NC(=S)NN(C)C)cc1` registered a TGI above 10 µM.

As to `COc1ccc(-c2cc(-c3ccc(Cl)cc3)c(C#N)c(=O)n2CCCCC(=O)Nc2ccccc2N)cc1`, the GI50 is 22.1 µM and the TGI is above 100 µM.

`CN1CCCN(CCNc2nccc(-c3c(-c4cccc(O)c4)nc4sccn34)n2)S1(=O)=O`: the GI50 is 17.7 µM and the TGI was above 100 µM.

For the compound `CCOC(=O)c1c(NC(=O)c2ccc(C(C)C)cc2)sc2c(CN(C)C)c(O)ccc12`, the GI50 is 1.98 µM and the TGI was 4.06 µM.

`COc1ccc(C(=O)N2c3ccccc3Sc3ccccc32)c(F)c1`: the GI50 is 10.7 µM and the TGI is above 100 µM.

As to `CC(O)CNC1=CC(=O)C(=O)c2ccccc21` (stereo not given), the TGI is 33.9 µM.

Consider `CC1(C)N=C(N)N=C(N)N1c1ccc(CCc2ccccc2)c(Cl)c1`, for which the GI50 is 0.0552 µM and the TGI was found to be 14.3 µM.

A further experiment relates to HCC-2998 colon. Nature of the experiment: inhibition of tumour cell growth, NCI panel, 48 h.
Take `COc1ccc(Cl)cc1Nc1nc(C(F)(F)F)ccc1C(=O)NN`: the TGI is 9.82 µM.

`CC(C)c1ccc2nc3ccc(C(=O)NCCN(C)C)cn3c(=O)c2c1` yielded a TGI of 31.7 µM.

With `C#C[C@]1(O)CC[C@H]2[C@@H]3CC=C4c5nc(Nc6ccccn6)sc5CC[C@]4(C)[C@H]3CC[C@@]21C`, the GI50 is 1.95 µM and the TGI is 5.13 µM.

In the case of `CSc1ccc(C2=Nn3c(nnc3-c3ccc(F)c(Cl)c3)SC2)cc1`, the GI50 was 24 µM and the TGI is above 100 µM.

Turning to `CNC(=O)Nc1ccc(-c2nc(N3CCOCC3)nc3c2cnn3C2CCOCC2)cc1`, the GI50 is 0.307 µM and the TGI is above 100 µM.

`NCCCCNCCCNC(=O)CNC(=O)CC(O)C(N)CCCC(NC(=O)C(CN)NC(=O)C(O)CNC(=O)CC(N)c1ccc(O)cc1)C(=O)O` (stereo not given) had a TGI above 10 µM.

`N/C(=N\OC(=O)c1ccccc1)C(C(=O)NOC(=O)c1ccccc1)C1CCCCC1` (stereo not given): the GI50 was 13.5 µM and the TGI came to 27.2 µM.

For the compound `CCOc1ccc(N=Nc2ccc3cc(/C(C)=N/NC(=O)/C(C#N)=C\c4ccc(N(CCC#N)CCC#N)cc4)c(=O)oc3c2)cc1`, the TGI was above 10 µM.

Turning to `CC(C)(C)OC(=O)NCC(C#N)CNC(=O)OC(C)(C)C`, the TGI was above 100 µM.

Turning to `O=C(Nc1ccc(OC(F)(F)F)cc1)c1sccc1NCc1ccnc2ccccc12`, the GI50 is 4.82 µM and the TGI is above 100 µM.

The compound `CCN(CC)c1ccc(NC(=S)NN(C)C)cc1` showed a TGI above 10 µM.

As for `COc1ccc(-c2cc(-c3ccc(Cl)cc3)c(C#N)c(=O)n2CCCCC(=O)Nc2ccccc2N)cc1`, the GI50 is 6.2 µM and the TGI is 79.9 µM.

Turning to `CN1CCCN(CCNc2nccc(-c3c(-c4cccc(O)c4)nc4sccn34)n2)S1(=O)=O`, the GI50 is 13.4 µM and 19.4 µM; the TGI is 34.5 µM and > 88.2 µM.

Take `CCOC(=O)c1c(NC(=O)c2ccc(C(C)C)cc2)sc2c(CN(C)C)c(O)ccc12`: the GI50 was 1.88 µM and the TGI was 3.51 µM.

As for `COc1ccc(C(=O)N2c3ccccc3Sc3ccccc32)c(F)c1`, the GI50 was 2.38 µM and the TGI is above 100 µM.

`CC(O)CNC1=CC(=O)C(=O)c2ccccc21` (stereo not given) gave a TGI of 26.5 µM.

As to `CC1(C)N=C(N)N=C(N)N1c1ccc(CCc2ccccc2)c(Cl)c1`, the GI50 is 0.361 µM and the TGI turned out to be 13.3 µM.
